Row | SMILES | melting point
1 | c1cc(-c2cnn3cc(-c4ccc(OCCN5CCOCC5)cc4)cnc23)cs1 [Example 3, 3-(3-thienyl)-6-(4-(2-(4-morpholinyl)ethoxy)phenyl)pyrazolo(1,5-A)pyrimidine] | 149 to 151 °C
2 | c1cc(-c2cnn3cc(-c4ccc(OCCN5CCCCC5)cc4)cnc23)cs1 [Example 4, 6-[4-(2-piperidin-1-yl-ethoxy)-phenyl]-3-thiophen-3-yl-pyrazolo[1,5-a]pyrimidine] | 141 to 143 °C

— US20020041880A1, “Method of treating cancer” (priority 2000, published 2002)
